{
  "source": "patent US20050003028A1",
  "about": "“Composition for protection and regeneration of structure and function of the liver” (priority 2001, published 2005)",
  "origin": "cited, not measured here",
  "conditions": "in vivo",
  "data": [
    {"substance": "Sylimarin", "values": [
      {"measurement": "re-absorbtion into digestive system", "value": "weak"}
    ]}
  ]
}
